Measured values from ChEMBL document CHEMBL1131808, “Potent immunosuppressive C32-O-arylethyl ether derivatives of ascomycin with reduced toxicity” (Bioorg Med Chem Lett, 1999).
Calls of active or inactive are those of the source. No cut-off for these calls is given here.

Assays:
[1] = target: Peptidyl-prolyl cis-trans isomerase FKBP1A (Homo sapiens, UniProt P62942); test: Effective concentration against FK506 binding protein 12 using [3H]-dihydro FK-506
Mus musculus [2] = test: In vivo immunosuppression in murine models by splenic T-cell proliferation assay after intravenous administration; format: functional
Mus musculus [3] = test: In vivo immunosuppression in murine models by splenic T-cell proliferation assay after peroral administration; format: functional; conditions: po
Mus musculus [4] = species on record: Mus musculus; test: The compound was tested for its inhibitory activity against T-cell proliferation using murine splenic T-cells; format: functional
Rattus norvegicus [5] = test: Cytotoxicity was determined by hypothermia induction after intravenous administration in rat; format: functional
Rattus norvegicus [6] = test: Tested for nephrotoxicity in Dawley rats and measured for blood urea nitrogen levels after intravenous administration at dose 5 mg/kg; format: functional
Rattus norvegicus [7] = test: Tested for nephrotoxicity in Dawley rats and measured for plasma drug level after intravenous administration at dose 10 mg/kg; format: functional
Rattus norvegicus [8] = test: Tested for nephrotoxicity in Dawley rats and measured for plasma drug level after intravenous administration at dose 2.5 mg/kg; format: functional
Rattus norvegicus [9] = test: Tested for nephrotoxicity in Dawley rats and measured for plasma drug level after intravenous administration at dose 5 mg/kg; format: functional
Rattus norvegicus [10] = test: Tested for nephrotoxicity in Dawley rats and measured for blood urea nitrogen levels after intravenous administration at dose 10 mg/kg; format: functional
Rattus norvegicus [11] = test: Tested for nephrotoxicity in Dawley rats and measured for blood urea nitrogen levels after intravenous administration at dose 2.5 mg/kg; format: functional
Rattus norvegicus [12] = test: The compound was tested for % reduction of nephrotoxicity in rat after intravenous administration at dose 1.7 mg/kg; format: functional
Rattus norvegicus [13] = test: The compound was tested for % reduction of nephrotoxicity in rat after intravenous administration at dose 20 mg/kg; format: functional
[14] = Ratio of hypothermia (ED50) by Murine (ED50) in vivo; format: functional
Rattus norvegicus [15] = test: The compound was tested for % reduction of nephrotoxicity in rat after intravenous administration at dose 10 mg/kg; format: functional
Rattus norvegicus [16] = test: Tested for nephrotoxicity in Dawley rats and measured for plasma drug level after intravenous administration at dose 20 mg/kg; format: functional
Rattus norvegicus [17] = test: Tested for nephrotoxicity in Dawley rats and measured for plasma drug level after intravenous administration at dose 40 mg/kg; format: functional
Rattus norvegicus [18] = test: Tested for nephrotoxicity in Dawley rats and measured for blood urea nitrogen levels after intravenous administration at dose 20 mg/kg; format: functional
Rattus norvegicus [19] = test: Tested for nephrotoxicity in Dawley rats and measured for blood urea nitrogen levels after intravenous administration at dose 40 mg/kg; format: functional
Rattus norvegicus [20] = test: The compound was tested for % reduction of nephrotoxicity in rat after intravenous administration at dose 5 mg/kg; format: functional
Rattus norvegicus [21] = test: The compound was tested for % reduction of nephrotoxicity in rat after intravenous administration at dose 20 mg/kg; NE denotes no effect; format: functional, organism-based; design: dose 20 mg/kg

Chain of Peptidyl-prolyl cis-trans isomerase FKBP1A (P62942 whole entry): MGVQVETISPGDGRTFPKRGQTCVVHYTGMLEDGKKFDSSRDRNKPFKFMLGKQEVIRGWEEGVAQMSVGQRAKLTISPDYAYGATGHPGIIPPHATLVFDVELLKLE

SMILES	EC50 [1] [nM]	ED50 (Mus musculus [2]) [mg/kg]	ED50 (Mus musculus [3]) [mg/kg]	IC50 (Mus musculus [4]) [nM]	ED50 (Rattus norvegicus [5]) [mg/kg]	Therapeutic index [14]	also measured
C=CC[C@@H]1/C=C(\C)C[C@H](C)C[C@H](OC)[C@H]2O[C@@](O)(C(=O)C(=O)N3CCCC[C@H]3C(=O)O[C@H](/C(C)=C/[C@@H]3CC[C@@H](O)[C@H](OC)C3)[C@H](C)C(O)CC1=O)[C@H](C)C[C@@H]2OC (single isomer, unassigned) [TACROLIMUS ANHYDROUS]	–	0.22	2.6	0.2	3.7	–	Nephrotoxicity (Rattus norvegicus [6]): 21 mg/dL; Nephrotoxicity (Rattus norvegicus [7]): 611 ng/mL; Nephrotoxicity (Rattus norvegicus [8]): 13 ng/mL; Nephrotoxicity (Rattus norvegicus [9]): 45 ng/mL; Nephrotoxicity (Rattus norvegicus [10]): 26 mg/dL; Nephrotoxicity (Rattus norvegicus [11]): 18.1 mg/dL; Reduction (Rattus norvegicus [12]): 45%
CC[C@@H]1/C=C(\C)C[C@H](C)C[C@H](OC)[C@H]2O[C@@](O)(C(=O)C(=O)N3CCCC[C@H]3C(=O)O[C@H](/C(C)=C/C3CC[C@@H](OC[C@H](O)c4ccc5ccccc5c4)[C@H](OC)C3)[C@H](C)[C@H](O)CC1=O)[C@H](C)C[C@@H]2OC (stereo partly specified)	18	0.38	3.4	0.34	14.2	37	Reduction (Rattus norvegicus [13]): 40%
CC[C@@H]1/C=C(\C)C[C@H](C)C[C@H](OC)[C@H]2O[C@@](O)(C(=O)C(=O)N3CCCC[C@H]3C(=O)O[C@H](/C(C)=C/C3CC[C@@H](OC[C@@H](O)c4ccc5ccccc5c4)[C@H](OC)C3)[C@H](C)[C@H](O)CC1=O)[C@H](C)C[C@@H]2OC (stereo partly specified)	21.1	0.38	3.7	0.33	21.6	57	Nephrotoxicity (Rattus norvegicus [6]): 16.3 mg/dL; Nephrotoxicity (Rattus norvegicus [7]): 478 ng/mL; Nephrotoxicity (Rattus norvegicus [16]): 1897 ng/mL; Nephrotoxicity (Rattus norvegicus [17]): 3120 ng/mL; Nephrotoxicity (Rattus norvegicus [9]): 239 ng/mL; Nephrotoxicity (Rattus norvegicus [10]): 17.7 mg/dL; Nephrotoxicity (Rattus norvegicus [18]): 24.7 mg/dL; Nephrotoxicity (Rattus norvegicus [19]): 39.3 mg/dL; Reduction (Rattus norvegicus [13]): 41%
CC[C@@H]1/C=C(\C)C[C@H](C)C[C@H](OC)[C@H]2O[C@@](O)(C(=O)C(=O)N3CCCC[C@H]3C(=O)O[C@H](/C(C)=C/C3CC[C@@H](OC[C@@H](O)c4cccc(C(F)(F)F)c4)[C@H](OC)C3)[C@H](C)[C@H](O)CC1=O)[C@H](C)C[C@@H]2OC (stereo partly specified)	45	0.31	3.7	0.38	12.8	41	Reduction (Rattus norvegicus [21]): inactive
CC[C@@H]1/C=C(\C)C[C@H](C)C[C@H](OC)[C@H]2O[C@@](O)(C(=O)C(=O)N3CCCC[C@H]3C(=O)O[C@H](/C(C)=C/C3CC[C@@H](OC[C@H](O)c4cccc(C(F)(F)F)c4)[C@H](OC)C3)[C@H](C)[C@H](O)CC1=O)[C@H](C)C[C@@H]2OC (stereo partly specified)	45	0.29	5	0.38	13.7	47	Reduction (Rattus norvegicus [20]): 51%
CC[C@@H]1/C=C(\C)C[C@H](C)C[C@H](OC)[C@H]2O[C@@](O)(C(=O)C(=O)N3CCCC[C@H]3C(=O)O[C@H](/C(C)=C/C3CC[C@@H](OC[C@H](O)c4ccc(F)c(F)c4)[C@H](OC)C3)[C@H](C)[C@H](O)CC1=O)[C@H](C)C[C@@H]2OC (stereo partly specified)	13.6	0.19	3.9	0.11	13.7	72	Reduction (Rattus norvegicus [20]): 54%

Continued, in another order:

EC50 [1] [nM]	SMILES	ED50 (Mus musculus [2]) [mg/kg]	ED50 (Mus musculus [3]) [mg/kg]	IC50 (Mus musculus [4]) [nM]	ED50 (Rattus norvegicus [5]) [mg/kg]	Therapeutic index [14]	also measured
12	CC[C@@H]1/C=C(\C)C[C@H](C)C[C@H](OC)[C@H]2O[C@@](O)(C(=O)C(=O)N3CCCC[C@H]3C(=O)O[C@H](/C(C)=C/C3CC[C@@H](OC[C@H](O)c4cc5ccccc5s4)[C@H](OC)C3)[C@H](C)[C@H](O)CC1=O)[C@H](C)C[C@@H]2OC (stereo partly specified)	0.53	5.6	0.47	–	–	–
7.5	CC[C@@H]1/C=C(\C)C[C@H](C)C[C@H](OC)[C@H]2O[C@@](O)(C(=O)C(=O)N3CCCC[C@H]3C(=O)O[C@H](/C(C)=C/C3CC[C@@H](OC[C@@H](O)c4ccc(F)c(F)c4)[C@H](OC)C3)[C@H](C)[C@H](O)CC1=O)[C@H](C)C[C@@H]2OC (stereo partly specified)	0.19	2.8	0.14	10	52	Reduction (Rattus norvegicus [15]): 44%
9	CC[C@@H]1/C=C(\C)C[C@H](C)C[C@H](OC)[C@H]2O[C@@](O)(C(=O)C(=O)N3CCCC[C@H]3C(=O)O[C@H](/C(C)=C/C3CC[C@@H](OC[C@H](O)c4cc(C)cc(C)c4)[C@H](OC)C3)[C@H](C)[C@H](O)CC1=O)[C@H](C)C[C@@H]2OC (stereo partly specified)	0.49	4.8	0.34	7.25	15	Reduction (Rattus norvegicus [15]): 48%
11.2	CC[C@@H]1/C=C(\C)C[C@H](C)C[C@H](OC)[C@H]2O[C@@](O)(C(=O)C(=O)N3CCCC[C@H]3C(=O)O[C@H](/C(C)=C/C3CC[C@@H](OC[C@@H](O)c4cc5ccccc5s4)[C@H](OC)C3)[C@H](C)[C@H](O)CC1=O)[C@H](C)C[C@@H]2OC (stereo partly specified)	0.75	6.4	0.39	14.8	20	Reduction (Rattus norvegicus [20]): 32%
7.5	CC[C@@H]1/C=C(\C)C[C@H](C)C[C@H](OC)[C@H]2O[C@@](O)(C(=O)C(=O)N3CCCC[C@H]3C(=O)O[C@H](/C(C)=C/C3CC[C@@H](OC[C@@H](O)c4cc(C)cc(C)c4)[C@H](OC)C3)[C@H](C)[C@H](O)CC1=O)[C@H](C)C[C@@H]2OC (stereo partly specified)	0.45	4.5	0.23	10.3	23	Reduction (Rattus norvegicus [21]): inactive
